Experimental data taken from US6900200B2, “Tricyclic hydroxy carboxamides and derivatives thereof tocolytic oxytocin receptor antagonists” (Wyeth, priority 2001, dated 2005).

These compounds were tested against T1, human oxytocin receptor (Homo sapiens, UniProt P30559) (assay: Oxytocin binding in CHO cell membranes expressing human oxytocin receptors ([3H]oxytocin radioligand binding)). Settings: @ 100 nM, read-out: OT % inhibition @ 100 nM.
T1 construct: host or cells: CHO cells, pcDNA3.1 vector
T1 sequence (P30559 1-389): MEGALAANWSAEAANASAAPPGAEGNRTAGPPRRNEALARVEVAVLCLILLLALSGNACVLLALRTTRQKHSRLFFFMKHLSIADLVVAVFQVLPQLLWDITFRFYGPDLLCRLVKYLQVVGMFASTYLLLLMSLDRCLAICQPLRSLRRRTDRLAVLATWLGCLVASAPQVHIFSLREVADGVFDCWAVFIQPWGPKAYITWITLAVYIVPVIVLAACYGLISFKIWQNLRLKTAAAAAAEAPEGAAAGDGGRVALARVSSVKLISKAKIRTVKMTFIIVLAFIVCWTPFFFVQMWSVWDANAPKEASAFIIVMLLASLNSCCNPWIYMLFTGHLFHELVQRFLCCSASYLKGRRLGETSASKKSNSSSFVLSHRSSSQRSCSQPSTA
Excerpt: Oxytocin Binding in Chinese Hamster Ovary Cell Membranes Expressing Human Oxytocin Receptors
Chinese Hamster Ovary (CHO) cells stably transfected with the human oxytocin receptor (cf. Tanizawa et al., U.S. Pat. No. 5,466,584 (1995) to Rohto Pharmaceutical Co. Ltd., Osaka, Japan) were obtained from M. Thibonnier, Case Western Reserve University School of Medicine, Cleveland, Ohio.
A. Passaging and Amplification of Cells
CHO cells transfected with the human oxytocin receptors obtained from M. Thibonnier (pcDNA3.1 vector) are allowed to grow to confluency (approx. >90%) in T-150 flasks under sterile conditions, in a cell culture medium of F-12 Nutrient Mixture (HAM) with L-glutamine (Gibco Cat. #11765-054) containing 15 mM HEPES (Gibco Cat. #15630-080), 1% antibiotic/antimycotic (add 5 mL 100×, Gibco Cat. #15240-062 per 500 mL F-12), 400 μg/mL of Geneticin (add 4 mL of 50 mg/mL per 500 mL F-12) and 10% Fetal Bovine Serum (Qualified, heat inactivated, Gibco Cat. #16140-063). The medium is removed by aspiration and the cells are washed with 10 mL of Hank's Balanced Salt solution (Gibco Cat. #14175-095). The salt solution is removed by aspiration and the cells trypsinized with 5 mL of trypsin-EDTA (0.05% trypsin, 0.53 mM EDTA-4Na, Gibco Cat. #25300-070) for 1 min. The trypsin is removed by aspiration and the cells dislodged by tapping. Cell Culture medium (e.g. 30 mL for 1:30 split) is immediately added and mixed well to inactivate trypsin. 1 mL of detached cells is added to new culture flasks containing fresh Cell Culture medium (e.g. into 25 mL per T-150 flask), and mixed gently. The cells are incubated at 37° C. in 5% CO2. The medium is changed at 3 to 4 days interval (or as appropriate). The cells grow to confluency (approx. >75%-95%) within 7-8 days. All steps are done under sterile conditions.
The cells are washed twice gently with Hank's Balanced Salt solution (e.g., use 10 mL per T-1 50 flask). The excess solution is removed and the cells bathed for 15-30 min. in an enzyme-free Cell Dissociation Buffer (e.g., use 8 mL Hank's Based, Gibco Cat. #13150-016 per T-150 flask) until cells are loosened. The contents are transferred to centrifuge tubes (50 mL size) kept in ice bath. All subsequent steps are done at 4° C. The tubes are centrifuged at 300×g for 15 min (1380 rpm on SORVAL, Model RT6000D, using rotor for 50 mL tubes). The supernatant is discarded and the cells suspended in homogenizing buffer (10 mM Tris-HCl containing 0.25 M sucrose and 1 mM EDTA, pH 7.4) ensuring that the volume of the buffer is about ten times the volume of the cell pellet. The cells are pooled into a centrifuge tube (50 mL) and homogenized with a Polytron at setting 6 for 10 sec. The homogenate is transferred into a Potter-Elvjehm homogenizer and homogenized with 3 strokes. The homogenate is centrifuged at 1500×g for 10 min at 4° C. (3100 rpm using SORVAL, model RT6000D, using rotor for 50 mL tubes). The pellet is discarded. The supernatant is centrifuged at 100,000×g for 60 min. at 4° C. (Beckman L8-80M ultracentrifuge; spin at 37,500 rpm with rotor type 70 Ti for 50 mL tubes; 38,000 rpm with type 80Ti for 15 mL tubes; or 35,800 rpm with rotor type 45Ti). The supernantant is discarded and the pellet suspended in 3 to 4 mL of Tris buffer (50 mM TRIS—HCl, pH 7.4). The protein content is estimated by the Bradford or Lowry method. The volume of the membrane suspension is adjusted with the membrane buffer (50 mM Tris-HCl containing 0.1% BSA and 0.1 mM PMSF) to give 3.0 mg/mL (or as appropriate) of protein. The membranes are aliquoted and stored at −70° C.
C. Radioligand Binding Assay
In wells of a 96-well format microtiter plate, is added 90, 110 or 130 μL (to make up a final volume of 200 μL) of assay buffer containing 50 mM of Tris-HCl (pH 7.4), […], 1 mg % aprotinin, 1 mg % leupeptin, 2 mg % 1,10-phenanthroline, 10 mg % trypsin inhibitor, and 0.1 mM PMSF. […]

Compound	inhibition at 0.1 µM [%]
COc1cc(C(=O)N2Cc3ccc(C(=O)N4CCN(CCO)CC4)n3Cc3ccccc32)ccc1-c1cccc2ccccc12 [Example 41, [4-(2-Hydroxyethyl)-1-piperazinyl]{10-[3-methoxy-4-(1-naphthyl)benzoyl]-10,11-dihydro-5H-pyrrolo[2,1-c][1,4]benzodiazepin-3-yl}methanone]	71
Cc1ccccc1-c1ccc(C(=O)N2Cc3ccc(C(=O)N4CCN(CCO)CC4)n3Cc3ccccc32)cc1 [Example 45, [4-(2-Hydroxyethyl)-1-piperazinyl]{10-[(2′-methyl[1,1′-biphenyl]-4-yl)carbonyl]-10,11-dihydro-5H-pyrrolo[2,1-c][1,4]benzodiazepin-3-yl}methanone]	87
COc1cc(C(=O)N2Cc3ccc(C(=O)N4CCN(CCO)CC4)n3Cc3ccccc32)ccc1-n1c(C)ccc1C [Example 52, {10-[4-(2,5-Dimethyl-1H-pyrrol-1-yl)-3-methoxybenzoyl]-10,11-dihydro-5H-pyrrolo[2,1-c][1,4]benzodiazepin-3-yl}[4-(2-hydroxyethyl)-1-piperazinyl]methanone]	36
Cc1cc(C(=O)N2Cc3ccc(C(=O)N4CCN(CCO)CC4)n3Cc3ccccc32)ccc1-c1ccccc1C(F)(F)F [Example 48, [4-(2-Hydroxyethyl)-1-piperazinyl](10-{[2-methyl-2′-(trifluoromethyl)[1,1′-biphenyl]-4-yl)carbonyl}-10,11-dihydro-5H-pyrrolo[2,1-c][1,4]benzodiazepin-3-yl)methanone]	79
COc1cc2c(cc1OC)N(C(=O)c1ccc(-c3ccccc3C(F)(F)F)c(C)c1)Cc1ccc(C(=O)N(CCO)CCO)n1C2 [Example 19, N,N-Bis(2-Hydroxyethyl)-7,8-dimethoxy-10-{[2-methyl-2′-trifluoromethyl-[1,1′-biphenyl]-4-yl]carbonyl}-10,11-dihydro-5H-pyrrolo[2,1-c][1,4]benzodiazepine-3-carboxamide]	27

Same assay, conditions: value printed in parentheses, read-out: OT (IC50)

Compound	IC50 [nM]
COc1ccccc1-c1ccc(C(=O)N2Cc3ccc(C(=O)N(C)C[C@H](O)[C@@H](O)[C@H](O)[C@H](O)CO)n3Cc3ccccc32)cc1C [Example 17, 10-[(2′-Methoxy-2-methyl-[1,1′-biphenyl]-4-yl)carbonyl]-10,11-dihydro-5H-pyrrolo[2,1-c][1,4]benzodiazepine-3-carboxylic acid methyl-[(2S,3R,4R, 5R)-2,3,4,5,6-pentahydroxy-hexyl)-amide]	1.03
Cc1cc(C(=O)N2Cc3ccc(C(=O)NC(CO)(CO)CO)n3Cc3ccccc32)ccc1-c1ccccc1C(F)(F)F [Example 3, 10-[(2-Methyl-2′-trifluoromethyl-[1,1′-biphenyl]-4-yl)carbonyl]-10,11-dihydro-5H-pyrrolo[2,1-c][1,4]benzodiazepine-3-carboxylic acid (2-hydroxy-1,1-bis-hydroxymethyl-ethyl)-amide]	6.53
Cc1cc(C(=O)N2Cc3ccc(C(=O)N(C)CC4COC(=O)O4)n3Cc3ccccc32)ccc1-c1ccccc1C(F)(F)F (stereo not shown) [Example 11, 10-[(2-Methyl-2′-trifluoromethyl-[1,1′-biphenyl]-4-yl)carbonyl]-10,11-dihydro-5H-pyrrolo[2,1-c][1,4]benzodiazepine-3-carboxylic acid methyl-[(2-oxo-[1,3]dioxolan-4-yl)methyl]-amide]	3.66
Cc1cc(C(=O)N2Cc3ccc(C(=O)N4CCN(C[C@H](O)CO)CC4)n3Cc3ccccc32)ccc1-c1ccccc1C(F)(F)F [Example 5, (2S)-3-{4-[(10-{[2-Methyl-2′-trifluoromethyl-[1,1′-biphenyl]-4-yl]carbonyl}-10,11-dihydro-5H-pyrrolo[2,1-c][1,4]benzodiazepin-3-yl)carbonyl]piperazin-1-yl}propane-1,2-diol]	35.8
Cc1ccc(-c2ccc(C(=O)N3Cc4ccc(C(=O)N(C)CC(O)CO)n4Cc4ccccc43)cc2)c2ccccc12 (stereo not shown) [Example 26, 10-{[4-(4-Methyl-naphthalen-1-yl)phenyl]carbonyl}-10,11-dihydro-5H-pyrrolo[2,1-c][1,4]benzodiazepine-3-carboxylic acid (2,3-dihydroxy-propyl)-N-methylamide]	55.8
Cc1cc(C(=O)N2Cc3ccc(C(=O)N(C)C[C@H](O)[C@@H](O)[C@H](O)[C@H](O)CO)n3Cc3ccccc32)ccc1-c1ccccc1C(F)(F)F [Example 4, 10-[(2-Methyl-2′-trifluoromethyl-[1,1′-biphenyl]-4-yl)carbonyl]-10,11-dihydro-5H-pyrrolo[2,1-c][1,4]benzodiazepine-3-carboxylic acid methyl-((2S,3R,4R,5R)-2,3,4,5,6-pentahydroxy-hexyl)-amide]	3.43
COc1cc(-c2ccccc2C)c(Cl)cc1C(=O)N1Cc2ccc(C(=O)N3CCN(CCO)CC3)n2Cc2ccccc21 [Example 39, {10-[(6-Chloro-3-methoxy-2′-methyl[1,1′-biphenyl]-4-yl)carbonyl]-10,11-dihydro-5H-pyrrolo[2,1-c][1,4]benzodiazepin-3-yl}[4-(2-hydroxyethyl)-1-piperazinyl]methanone]	3
{(2S)-1-[(10-{[2-Methoxy-2(trifluoromethyl)[1,1′-biphenyl]-4-yl]carbonyl}-10,11-dihydro-5H-pyrrolo[2,1-c][1,4]benzodiazepin-3-yl)carbonyl]pyrrolidin-2-yl}-methanol [Example 36]	7.95
CC(=O)OCC(CN(C)C(=O)c1ccc2n1Cc1ccccc1N(C(=O)c1ccc(-c3ccccc3C(F)(F)F)c(C)c1)C2)OC(C)=O (stereo not shown) [Example 13, 2-(Acetyloxy)-1-({methyl[(10-{[2-methyl-2′-trifluoromethyl-[1,1′-biphenyl]-4-yl]carbonyl}-10,11-dihydro-5H-pyrrolo[2,1-c][1,4]benzodiazepin-3-yl)carbonyl]amino}methyl)ethyl acetate]	9.16
COCC(CN(C)C(=O)c1ccc2n1Cc1ccccc1N(C(=O)c1ccc(-c3ccccc3C(F)(F)F)c(C)c1)C2)OC (stereo not shown) [Example 10, N-(2,3-Dimethoxypropyl)-N-methyl-10-{[2-methyl-2′-trifluoromethyl-[1,1′-biphenyl]-4-yl]carbonyl}-10,11-dihydro-5H-pyrrolo[2,1-c][1,4]benzodiazepine-3-carboxamide]	5.31
Cc1cc(C(=O)N2Cc3ccc(C(=O)N(C)CC(O)CO)n3Cc3ccccc32)ccc1-c1ccccc1C(F)(F)F (stereo not shown) [Example 2, 10-[(2-Methyl-2′-trifluoromethyl-[1,1′-biphenyl]-4-yl)carbonyl]-10,11-dihydro-5H-pyrrolo[2,1-c][1,4]benzodiazepine-3-carboxylic acid (2,3-dihydroxy-propyl)-methyl-amide]	3.09
